The source made the active and inactive calls. The rule behind the calls is not given here.
How the values were obtained:
[1] = target: 11-beta-hydroxysteroid dehydrogenase 1 (Homo sapiens, UniProt P28845, C272S); test: Inhibition of N-terminal MKHQHQHQHQHQHQQPL-tagged 11beta-HSD1 C272S mutant (unknown origin) expressed in Escherichia coli BL21 (DE3) using cortisol as substrate measured for 1 hr in presence of NADPH by fluorescence assay
[2] = target: T1, 11-beta-hydroxysteroid dehydrogenase type 2 (Homo sapiens, UniProt P80365); test: Inhibition of 11beta-HSD2 (unknown origin) expressed in HEK293 cells using cortisone as substrate measured after 2 hrs in presence of NAD+ by HTRF assay; type: ADME, cell-based
T1 sequence (P80365 whole entry): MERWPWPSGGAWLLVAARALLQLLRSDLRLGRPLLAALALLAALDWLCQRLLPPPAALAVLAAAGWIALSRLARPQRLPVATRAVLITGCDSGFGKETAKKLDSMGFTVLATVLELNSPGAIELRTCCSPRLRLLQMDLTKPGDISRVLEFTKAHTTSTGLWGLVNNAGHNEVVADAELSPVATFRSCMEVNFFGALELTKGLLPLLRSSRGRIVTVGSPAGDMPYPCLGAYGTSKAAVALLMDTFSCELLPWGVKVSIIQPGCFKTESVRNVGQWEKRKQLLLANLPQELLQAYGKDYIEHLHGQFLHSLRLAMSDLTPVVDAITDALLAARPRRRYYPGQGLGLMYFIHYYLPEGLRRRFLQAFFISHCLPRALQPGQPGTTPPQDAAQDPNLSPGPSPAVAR

[3] = test system: 3T3-L1; test: Cytotoxicity against mouse 3T3L1 cells measured after 72 hrs by celltiter-glo luminescent cell viability assay; type: ADME, cell-based; details: 3T3-L1, 72 h
[4] = test system: 3T3-L1; test: Inhibition of cell differentiation in mouse 3T3L1 cells assessed as reduction in pre-adipocyte differentiation into matured adipocytes at 50 uM incubated for 48 hrs under induction medium containing dehydrocorticosterone/cortisone followed by shifting to differentiation medium and measured after 7 days by Oil red O staining-based microscopic analysis; type: functional
[5] = Half life in mouse liver microsomes; type: ADME, Microsome
[6] = Half life in human liver microsomes; type: ADME, Microsome
[7] = Half life in human plasma; type: ADME, cell-free
[8] = Stability in mouse plasma; type: ADME, cell-free
[9] = Half life in simulated gastric fluid; type: ADME
[10] = target: T2, Peroxisome proliferator-activated receptor gamma (Homo sapiens, UniProt P37231); test: Antagonist activity at human PPARgamma expressed in 293H cells assessed as reduction in rosiglitazone-induced transcriptional response preincubated for 30 mins followed by rosiglitazone addition and measured after 16 hrs by reporter gene-based FRET assay; type: cell-based
T2 sequence (P37231 whole entry): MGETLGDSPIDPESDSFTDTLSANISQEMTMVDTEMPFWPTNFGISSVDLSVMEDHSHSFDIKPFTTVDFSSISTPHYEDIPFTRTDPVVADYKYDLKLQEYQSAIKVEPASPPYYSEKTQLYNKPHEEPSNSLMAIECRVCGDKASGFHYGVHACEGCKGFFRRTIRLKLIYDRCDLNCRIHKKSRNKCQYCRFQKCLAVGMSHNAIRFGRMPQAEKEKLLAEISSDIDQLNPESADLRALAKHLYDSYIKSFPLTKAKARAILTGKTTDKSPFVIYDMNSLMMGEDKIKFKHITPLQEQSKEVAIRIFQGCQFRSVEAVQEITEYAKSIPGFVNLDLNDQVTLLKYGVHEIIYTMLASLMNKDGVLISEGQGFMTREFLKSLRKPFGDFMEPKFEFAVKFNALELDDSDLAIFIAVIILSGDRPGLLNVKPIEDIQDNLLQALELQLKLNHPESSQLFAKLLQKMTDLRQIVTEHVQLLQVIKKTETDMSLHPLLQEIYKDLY

Chain of 11-beta-hydroxysteroid dehydrogenase 1 (P28845 whole entry C272S): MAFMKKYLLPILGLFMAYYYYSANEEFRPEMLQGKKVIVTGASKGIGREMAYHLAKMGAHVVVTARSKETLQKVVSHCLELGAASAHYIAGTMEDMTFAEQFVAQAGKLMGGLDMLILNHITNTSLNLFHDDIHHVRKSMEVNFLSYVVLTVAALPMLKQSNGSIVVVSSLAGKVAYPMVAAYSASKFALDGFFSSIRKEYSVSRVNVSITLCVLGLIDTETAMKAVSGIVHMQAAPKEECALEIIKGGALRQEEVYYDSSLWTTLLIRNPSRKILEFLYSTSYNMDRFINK

Structure (SMILES)	IC50 [1] [µM]	Ki [1] [µM]	IC50 [2] [µM]	t1/2 [5] [h]	t1/2 [6] [h]	half-life [7] [h]	Stability [8]	half-life [9] [h]	EC50 [10] [µM]	EC50 [3] [µM]	inhibition [4]
C=C1CC[C@@]2(C[C@@H]1OC(C)=O)[C@@H](C(=O)O)CC[C@H]2C(C)C	71	–	> 500	–	–	–	–	–	–	> 500	–
CC1(C)[C@@H](OC(=O)CCC(=O)O)CC[C@]2(C)[C@H]3C(=O)C=C4[C@@H]5C[C@@](C)(C(=O)O)CC[C@]5(C)CC[C@@]4(C)[C@]3(C)CC[C@@H]12 [CARBENOXOLONE]	–	–	–	–	–	–	–	–	–	> 500	–
CC(=O)O[C@H]1C[C@]2(CC=C1C)[C@@H](C(=O)O)CC[C@H]2C(C)C	178	–	> 500	–	–	–	–	–	–	> 500	–
COC(=O)[C@H]1CC[C@@H](C(C)C)[C@@]12CC=C(C)[C@@H](O)C2	> 500	> 500	> 500	–	–	–	–	–	–	> 500	–
CC1=CC[C@@]2(C[C@@H]1O)[C@@H](C(N)=O)CC[C@H]2C(C)C	> 500	> 500	> 500	–	–	–	–	–	–	> 500	–
CC1=CC[C@@]2(C[C@@H]1O)[C@@H](C(=O)O)CC[C@H]2C1CCCCC1	1.34	0.21	> 500	0.13	0.3	> 48	Stable	> 6	–	> 500	Active
CC(=O)O[C@@H]1C[C@@](C)(O)CC[C@]12[C@@H](C(=O)O)CC[C@H]2C(C)C	> 500	289	> 500	–	–	–	–	–	–	> 500	–
CC1=CC[C@@]2([C@H](O)C1)[C@@H](C(=O)O)CC[C@H]2C(C)C	55.1	8.23	> 500	–	–	–	–	–	–	> 500	–
C=C1CC[C@@]2(C(OC)[C@@H]1O)[C@@H](C(=O)O)CC[C@H]2C(C)C (stereo not given in full)	> 500	145	> 500	–	–	–	–	–	–	> 500	–

Now from value to compound, other results behind:

IC50 [1] [µM]	Ki [1] [µM]	IC50 [2] [µM]	t1/2 [5] [h]	t1/2 [6] [h]	half-life [7] [h]	Stability [8]	half-life [9] [h]	EC50 [10] [µM]	Structure (SMILES)	EC50 [3] [µM]	inhibition [4]
> 500	130	> 500	–	–	–	–	–	–	CC(C)[C@@H]1CC[C@H](C(=O)O)[C@]12C[C@@H](O)[C@@](C)(O)[C@@H](O)C2	> 500	–
38.3	–	> 500	–	–	–	–	–	–	C=C1CC[C@@]2(C[C@@H]1O)[C@@H](C(=O)O)CC[C@H]2C(C)C	> 500	–
162	–	> 500	–	–	–	–	–	–	C=C1CC[C@]2(C[C@@H]1O)[C@H](C)CC[C@@H]2C(=O)O	> 500	–
80.3	–	> 500	–	–	–	–	–	–	CC1=CC[C@@]2(C[C@H]1O)[C@@H](C(C)C)CC[C@H]2C(=O)O	> 500	–
379	57.6	> 500	–	–	–	–	–	–	C[C@]1(O)CC[C@@]2(C[C@@H]1O)[C@@H](C(=O)O)CC[C@H]2C1CCCCC1	> 500	–
27.2	4.63	> 500	0.3	1.29	> 48	Stable	> 6	–	CC1=CC[C@@]2([C@H](O)C1)[C@@H](C(=O)O)CC[C@H]2C1CCCCC1	> 500	–
–	–	–	–	–	–	–	–	0.002	O=C(Nc1ccccc1)c1cc([N+](=O)[O-])ccc1Cl	–	–
> 500	–	> 500	–	–	–	–	–	–	CC1=CC[C@@]2(C[C@@H]1O)[C@H](C(=O)O)CC[C@H]2C(C)C	> 500	–
42.4	5.15	> 500	2.23	6.8	> 48	Stable	> 6	–	CC1=CC[C@@]2(CC1=O)[C@@H](C(=O)O)CC[C@H]2C(C)C	> 500	–
2.2	–	> 500	0.27	0.93	> 48	Stable	> 6	–	CC1=CC[C@@]2(C=C1)[C@@H](C(=O)O)CC[C@H]2C1CCCCC1	> 300	Active

— ChEMBL document CHEMBL4311946, “Mechanistic Insight on the Mode of Action of Colletoic Acid” (J Med Chem, 2019)
